Measured values: patent publication US20210321612A1, “USE OF QUERCETIN IN PLANT AGING PROMOTER” (TOBACCO RESEARCH INSTITUTE OF CHINESE ACADEMY OF …, priority 2019, published 2021)

How the values were obtained:
Assay type in all cases: in vivo
[1] = system: living plants of Arabidopsis thaliana; assay: Spraying the quercetin plant senescence accelerator onto living plants of Arabidopsis thaliana; conditions: attached leaves sprayed at 10 and 20 μmol/L; FIG. 3B
Excerpt: Experimental test 3: Effects of spraying the quercetin plant senescence accelerator onto living plants of Arabidopsis thaliana Living plants of Arabidopsis thaliana were sprayed with the quercetin plant senescence accelerator finished products prepared by the preparation method provided in one of Embodiments 1-3 of the present application, and the accelerating effect of the accelerator on the senescence of plant leaves was observed. The specific results were shown in FIGS. 3A-3C, and the experimental groups and their results were described below. Experimental group: living plants of Arabidopsis thaliana were sprayed with the quercetin plant senescence accelerators with concentrations of 10 μmol/L and 20 μmol/L in Embodiment 2, respectively. Control group: living plants Arabidopsis thaliana were sprayed with the 1/2 MS solution of 2-(N-morpholino)ethanesulfonic acid in which the concentration of 2-(N-morpholino)ethanesulfonic acid was 3 mmol/L.

[2] = system: living plants of Nicotiana benthamiana; assay: Spraying the quercetin plant senescence accelerator onto attached leaves of Nicotiana benthamiana; conditions: attached leaves sprayed at 1, 10 and 20 μmol/L; FIG. 4B
Excerpt: Experimental test 4: Effects of spraying the quercetin plant senescence accelerator onto attached leaves of Nicotiana benthamiana Living plants of Nicotiana benthamiana were sprayed with the quercetin plant senescence accelerator finished product in Embodiment 3, and the accelerating effect of the accelerator on the senescence of plant leaves was observed. The specific results were shown in FIGS. 4A-4C, and the experimental groups and their results were described below. Experimental group: living plants of Nicotiana benthamiana were sprayed with the quercetin plant senescence accelerators having concentrations of 1 μmol/L, 10 μmol/L and 20 μmol/L, respectively. Control group: living plants of Nicotiana benthamiana were sprayed with the 1/2 MS solution of 2-(N-morpholino)ethanesulfonic acid in which the concentration of 2-(N-morpholino)ethanesulfonic acid was 2.9 mmol/L.

[3] = system: Honghuadajinyuan tobacco; assay: Spraying the quercetin plant senescence accelerator onto common tobacco in fields; conditions: 10 μmol/L; attached leaves of tobacco; FIG. 5B
Excerpt: Experimental test 5: Effects of spraying the quercetin plant senescence accelerator onto common tobacco in fields It could be found from the experimental test 4 that 10 μmol/L was the optimal concentration of the quercetin plant senescence accelerator to accelerate mature and yellowing of tobacco leaves. Further, Honghuadajinyuan tobacco was sprayed with the quercetin plant senescence accelerator finished product, and the accelerating effect of the accelerator on the senescence of plant leaves was observed. The specific results were shown in FIGS. 5A-5D, and the experimental groups and their results were described below. The quercetin plant senescence accelerator having a concentration of 0 (the control group) and the quercetin plant senescence accelerator having a concentration of 10 μmol/L were sprayed onto living plants of common tobacco.

Measured: content of chlorophyll in leaves

O=c1c(O)c(-c2ccc(O)c(O)c2)oc2cc(O)cc(O)c12 [quercetin]
significantly reduced: all assays above
